The text below walks through data of ChEMBL document CHEMBL4007434, “Indazole-Based Covalent Inhibitors To Target Drug-Resistant Epidermal Growth Factor Receptor” (J Med Chem, 2017).

Series [1] deals with T1, Tyrosine-protein kinase JAK3 (Homo sapiens) (UniProt P52333).
T1 sequence (whole entry): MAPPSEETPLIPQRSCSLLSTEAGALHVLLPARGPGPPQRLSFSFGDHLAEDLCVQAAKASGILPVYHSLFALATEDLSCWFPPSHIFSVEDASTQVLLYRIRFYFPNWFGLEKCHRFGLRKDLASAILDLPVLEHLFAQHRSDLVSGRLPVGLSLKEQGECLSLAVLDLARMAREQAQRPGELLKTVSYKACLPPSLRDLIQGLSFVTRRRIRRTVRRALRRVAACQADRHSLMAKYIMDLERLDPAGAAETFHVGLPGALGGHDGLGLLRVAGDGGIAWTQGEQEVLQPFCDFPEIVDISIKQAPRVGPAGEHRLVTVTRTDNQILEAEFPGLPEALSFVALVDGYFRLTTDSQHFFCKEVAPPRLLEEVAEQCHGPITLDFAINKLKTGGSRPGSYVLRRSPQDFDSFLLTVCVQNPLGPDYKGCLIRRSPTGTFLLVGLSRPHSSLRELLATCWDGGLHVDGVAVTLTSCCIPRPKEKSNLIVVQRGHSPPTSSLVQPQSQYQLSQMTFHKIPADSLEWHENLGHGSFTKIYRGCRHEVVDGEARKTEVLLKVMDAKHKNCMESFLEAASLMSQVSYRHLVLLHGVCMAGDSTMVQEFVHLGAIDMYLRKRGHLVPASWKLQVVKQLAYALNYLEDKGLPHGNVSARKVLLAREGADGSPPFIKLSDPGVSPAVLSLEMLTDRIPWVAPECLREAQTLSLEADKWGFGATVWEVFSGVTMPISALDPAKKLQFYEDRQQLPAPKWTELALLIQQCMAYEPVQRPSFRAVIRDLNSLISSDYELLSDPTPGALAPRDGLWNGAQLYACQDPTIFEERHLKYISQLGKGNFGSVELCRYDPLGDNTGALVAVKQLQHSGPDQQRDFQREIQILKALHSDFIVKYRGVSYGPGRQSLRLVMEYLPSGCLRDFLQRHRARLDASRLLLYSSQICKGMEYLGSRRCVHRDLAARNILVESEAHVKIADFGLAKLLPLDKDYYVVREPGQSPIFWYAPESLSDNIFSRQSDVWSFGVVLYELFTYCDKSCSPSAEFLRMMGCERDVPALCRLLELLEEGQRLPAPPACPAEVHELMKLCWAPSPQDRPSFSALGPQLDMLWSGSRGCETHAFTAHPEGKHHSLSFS
In words: Inhibition of recombinant human GST-tagged cytoplasmic JAK3 (781 to 1124 amino acid residues) catalytic domain expressed in baculovirus expression system at 1 uM by Z'-LYTE assay.

The target of series [2] is Tyrosine-protein kinase BTK (Homo sapiens) (UniProt Q06187). In words: Inhibition of full-length recombinant human His-tagged cytoplasmic BTK expressed in baculovirus expression system at 1 uM by Z'-LYTE assay.
Chain of Tyrosine-protein kinase BTK (Homo sapiens) (Q06187 whole entry): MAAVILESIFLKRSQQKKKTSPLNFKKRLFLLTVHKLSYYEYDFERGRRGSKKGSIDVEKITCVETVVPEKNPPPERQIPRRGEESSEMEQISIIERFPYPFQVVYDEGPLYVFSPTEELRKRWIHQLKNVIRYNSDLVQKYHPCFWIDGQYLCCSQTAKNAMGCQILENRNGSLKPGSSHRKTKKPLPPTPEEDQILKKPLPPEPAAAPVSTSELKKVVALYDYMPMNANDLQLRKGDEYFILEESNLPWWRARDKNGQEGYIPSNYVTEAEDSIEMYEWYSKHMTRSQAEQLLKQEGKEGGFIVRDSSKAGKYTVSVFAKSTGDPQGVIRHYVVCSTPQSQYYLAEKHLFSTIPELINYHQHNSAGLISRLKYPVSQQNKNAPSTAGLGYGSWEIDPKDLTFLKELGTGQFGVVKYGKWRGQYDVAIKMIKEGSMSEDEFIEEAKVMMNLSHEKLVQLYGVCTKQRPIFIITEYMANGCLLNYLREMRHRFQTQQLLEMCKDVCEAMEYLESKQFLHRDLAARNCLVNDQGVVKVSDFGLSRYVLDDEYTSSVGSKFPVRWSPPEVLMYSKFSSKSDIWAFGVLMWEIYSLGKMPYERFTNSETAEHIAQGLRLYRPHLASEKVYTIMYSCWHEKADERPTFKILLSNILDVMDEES
Series [3] addresses T2, Tyrosine-protein kinase TXK (Homo sapiens) (UniProt P42681).
T2 sequence (whole entry): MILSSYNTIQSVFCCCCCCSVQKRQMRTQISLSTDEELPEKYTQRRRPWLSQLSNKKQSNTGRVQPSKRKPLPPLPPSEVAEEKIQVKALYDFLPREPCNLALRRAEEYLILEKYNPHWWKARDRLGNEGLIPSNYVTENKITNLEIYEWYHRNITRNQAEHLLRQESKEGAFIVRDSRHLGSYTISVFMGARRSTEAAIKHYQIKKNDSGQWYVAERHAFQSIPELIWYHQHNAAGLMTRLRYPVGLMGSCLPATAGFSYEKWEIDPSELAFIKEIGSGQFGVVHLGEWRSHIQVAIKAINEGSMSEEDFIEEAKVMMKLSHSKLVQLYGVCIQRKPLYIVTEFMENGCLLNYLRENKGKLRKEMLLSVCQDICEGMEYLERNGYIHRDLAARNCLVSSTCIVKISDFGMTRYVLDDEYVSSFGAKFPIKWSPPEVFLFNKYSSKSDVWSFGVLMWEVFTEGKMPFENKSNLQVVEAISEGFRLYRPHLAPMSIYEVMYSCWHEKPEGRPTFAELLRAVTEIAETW
In words: Inhibition of full-length recombinant human N-terminal GST-tagged cytoplasmic TXK (260 to 527 amino acid residues) expressed in baculovirus expression system at 1 uM by Z'-LYTE assay.

Series [4] is described as follows: Stability in human plasma assessed as compound remaining at 5 uM after 1 hr by LCMS analysis. In kind it is ADME, cell-free. Particulars: read-out: Stability.
Series [5] concerns the target Epidermal growth factor receptor (Homo sapiens, UniProt P00533). In words: Reversible inhibition of wild-type human N-terminal GST-tagged EGFR cytoplasmic domain (669 to 1210 end amino acid residues) expressed in baculovirus expression system using TK peptide substrate assessed as inactivation constant preincubated for 2 to 90 mins followed by 6-fold dilution.
In series [6] the test system is Epidermal growth factor receptor (Homo sapiens), P00533 [L858R].
Chain of Epidermal growth factor receptor (Homo sapiens), P00533 [L858R] (P00533 whole entry L858R): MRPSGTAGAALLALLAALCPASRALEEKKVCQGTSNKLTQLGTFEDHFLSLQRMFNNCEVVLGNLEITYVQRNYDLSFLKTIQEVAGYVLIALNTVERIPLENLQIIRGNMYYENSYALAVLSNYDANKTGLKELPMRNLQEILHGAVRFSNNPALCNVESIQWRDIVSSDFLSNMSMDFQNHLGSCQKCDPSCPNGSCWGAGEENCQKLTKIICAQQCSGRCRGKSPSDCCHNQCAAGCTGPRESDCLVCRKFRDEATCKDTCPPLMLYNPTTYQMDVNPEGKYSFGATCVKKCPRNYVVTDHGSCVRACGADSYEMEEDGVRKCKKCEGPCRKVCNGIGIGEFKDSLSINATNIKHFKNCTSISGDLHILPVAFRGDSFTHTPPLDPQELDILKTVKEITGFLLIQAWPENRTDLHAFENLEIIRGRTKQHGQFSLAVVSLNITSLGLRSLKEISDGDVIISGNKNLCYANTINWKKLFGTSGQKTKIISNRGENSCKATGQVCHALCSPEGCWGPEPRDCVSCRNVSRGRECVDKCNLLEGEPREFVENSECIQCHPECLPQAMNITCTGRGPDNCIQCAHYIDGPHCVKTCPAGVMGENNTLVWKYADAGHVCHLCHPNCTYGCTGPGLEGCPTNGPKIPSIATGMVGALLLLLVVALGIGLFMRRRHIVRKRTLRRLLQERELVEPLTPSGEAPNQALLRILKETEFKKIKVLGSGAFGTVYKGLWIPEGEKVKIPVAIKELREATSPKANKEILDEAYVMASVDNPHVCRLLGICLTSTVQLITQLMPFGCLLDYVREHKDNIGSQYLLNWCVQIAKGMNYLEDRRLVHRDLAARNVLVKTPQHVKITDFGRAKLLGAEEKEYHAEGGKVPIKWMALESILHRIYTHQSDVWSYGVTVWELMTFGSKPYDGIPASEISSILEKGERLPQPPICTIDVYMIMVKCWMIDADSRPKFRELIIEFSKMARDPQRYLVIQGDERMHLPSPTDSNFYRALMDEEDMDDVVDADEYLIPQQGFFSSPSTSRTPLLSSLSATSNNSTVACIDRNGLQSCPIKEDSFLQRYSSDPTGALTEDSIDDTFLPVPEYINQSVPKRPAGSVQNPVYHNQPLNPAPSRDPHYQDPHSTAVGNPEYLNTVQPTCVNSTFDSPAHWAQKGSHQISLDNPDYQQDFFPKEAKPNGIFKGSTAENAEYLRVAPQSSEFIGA
Series [7] concerns Epidermal growth factor receptor (Homo sapiens), P00533 [L858R,T790M].
Chain of Epidermal growth factor receptor (Homo sapiens), P00533 [L858R,T790M] (P00533 whole entry T790M/L858R, looked up): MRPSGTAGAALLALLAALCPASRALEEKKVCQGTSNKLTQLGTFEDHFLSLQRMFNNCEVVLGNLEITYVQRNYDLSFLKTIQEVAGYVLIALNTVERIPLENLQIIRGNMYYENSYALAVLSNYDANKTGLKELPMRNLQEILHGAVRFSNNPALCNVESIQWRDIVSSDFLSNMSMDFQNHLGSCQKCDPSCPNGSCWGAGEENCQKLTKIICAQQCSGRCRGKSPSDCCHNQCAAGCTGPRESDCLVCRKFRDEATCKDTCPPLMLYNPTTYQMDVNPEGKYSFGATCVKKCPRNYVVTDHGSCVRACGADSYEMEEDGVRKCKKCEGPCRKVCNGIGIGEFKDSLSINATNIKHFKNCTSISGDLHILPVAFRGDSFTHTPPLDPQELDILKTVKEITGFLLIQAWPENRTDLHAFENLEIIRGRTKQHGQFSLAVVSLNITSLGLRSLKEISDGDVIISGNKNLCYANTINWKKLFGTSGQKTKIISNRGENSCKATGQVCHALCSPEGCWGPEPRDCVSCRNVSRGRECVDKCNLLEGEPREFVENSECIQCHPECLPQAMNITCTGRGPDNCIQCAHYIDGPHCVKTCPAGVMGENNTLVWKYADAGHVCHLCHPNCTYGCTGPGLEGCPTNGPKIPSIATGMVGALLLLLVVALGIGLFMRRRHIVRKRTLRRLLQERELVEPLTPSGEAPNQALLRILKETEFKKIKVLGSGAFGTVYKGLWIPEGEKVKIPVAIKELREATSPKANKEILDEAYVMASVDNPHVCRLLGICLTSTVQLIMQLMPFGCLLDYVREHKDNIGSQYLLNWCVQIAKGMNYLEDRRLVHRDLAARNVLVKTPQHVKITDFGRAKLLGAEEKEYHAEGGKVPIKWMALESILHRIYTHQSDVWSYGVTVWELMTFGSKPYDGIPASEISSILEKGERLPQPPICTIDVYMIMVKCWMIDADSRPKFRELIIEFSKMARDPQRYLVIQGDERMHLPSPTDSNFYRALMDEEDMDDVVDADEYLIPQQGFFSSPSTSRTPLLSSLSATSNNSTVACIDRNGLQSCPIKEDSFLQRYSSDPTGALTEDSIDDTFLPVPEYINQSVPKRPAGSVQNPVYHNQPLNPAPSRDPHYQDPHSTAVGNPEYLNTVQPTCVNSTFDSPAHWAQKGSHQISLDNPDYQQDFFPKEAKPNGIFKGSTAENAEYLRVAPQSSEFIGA
Series [8] shares this test system. Particulars: 100 nM.

The source made the active and inactive calls. No cut-off for these calls is given here.

Usually inhibition stands for the share of the control response that was lost under treatment. The term kinact denotes the rate constant of inactivation at saturating inhibitor.

Chain of Epidermal growth factor receptor (P00533 whole entry, the tested form may be a part): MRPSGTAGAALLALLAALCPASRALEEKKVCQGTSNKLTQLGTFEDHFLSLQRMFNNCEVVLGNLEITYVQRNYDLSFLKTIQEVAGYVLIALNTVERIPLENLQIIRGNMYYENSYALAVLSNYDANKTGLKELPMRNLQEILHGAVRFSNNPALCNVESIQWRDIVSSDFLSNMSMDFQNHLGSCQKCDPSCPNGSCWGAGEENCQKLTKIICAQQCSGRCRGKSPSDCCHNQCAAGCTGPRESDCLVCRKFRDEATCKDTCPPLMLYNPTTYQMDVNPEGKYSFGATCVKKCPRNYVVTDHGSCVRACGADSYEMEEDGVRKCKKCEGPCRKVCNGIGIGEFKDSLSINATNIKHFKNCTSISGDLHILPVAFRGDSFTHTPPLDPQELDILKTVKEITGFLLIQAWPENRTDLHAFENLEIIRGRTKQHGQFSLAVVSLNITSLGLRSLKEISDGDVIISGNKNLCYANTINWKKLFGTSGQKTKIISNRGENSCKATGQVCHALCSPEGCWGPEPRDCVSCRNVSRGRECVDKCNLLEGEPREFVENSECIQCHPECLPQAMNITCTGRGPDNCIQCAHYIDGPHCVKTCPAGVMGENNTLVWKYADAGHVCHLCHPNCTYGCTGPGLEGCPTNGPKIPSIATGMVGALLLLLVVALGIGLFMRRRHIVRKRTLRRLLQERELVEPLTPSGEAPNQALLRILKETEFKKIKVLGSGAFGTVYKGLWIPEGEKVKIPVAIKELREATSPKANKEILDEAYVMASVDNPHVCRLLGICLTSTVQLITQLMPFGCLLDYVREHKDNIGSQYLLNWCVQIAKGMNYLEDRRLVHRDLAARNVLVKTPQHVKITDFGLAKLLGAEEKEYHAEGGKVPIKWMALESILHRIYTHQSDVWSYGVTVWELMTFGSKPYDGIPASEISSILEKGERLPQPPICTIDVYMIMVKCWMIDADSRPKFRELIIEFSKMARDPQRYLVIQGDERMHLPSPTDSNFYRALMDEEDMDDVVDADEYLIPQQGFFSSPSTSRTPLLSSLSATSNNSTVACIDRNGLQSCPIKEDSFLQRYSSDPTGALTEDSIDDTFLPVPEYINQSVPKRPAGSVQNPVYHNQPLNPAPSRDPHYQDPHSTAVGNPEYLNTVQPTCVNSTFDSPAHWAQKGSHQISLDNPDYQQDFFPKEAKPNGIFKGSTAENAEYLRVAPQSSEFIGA

In the case of `C=CC(=O)Nc1cc(Nc2n[nH]c3cc(Nc4cccc(F)c4)ccc23)c(OC)cc1N(C)CCN(C)C`, the inhibition in series [1], in series [2] and in series [3] was > 85% each time. The remaining at 1 h, 5 µM in series [4] was > 75%. Also, the kinact in series [5] is 0.00233 s⁻¹. Further, the results for the Kinact in series [6] and in series [7] were 0.09 min⁻¹ and 0.17 min⁻¹, respectively. In series [8], the inhibition result was “Active”.
